Test results as given in patent US20100190832A1, “Mechanism-based inhibitors of transthyretin amyloidosis: studies with biphenyl ethers and structural templates” (NATIONAL INSTITUTE OF IMMUNOLOGY., priority 2008, published 2010).

Target: T1, WT-TTR (Homo sapiens, UniProt P02766)
T1 construct: made in house
Assay: Stagnant acid-mediated TTR aggregation (fibril formation) assay, turbidity at 340 nm
Assay type: biochemical
Details: WT-TTR 7.2 μM; for remaining activity at 100 µM / remaining activity at 50 µM: 72 h; for remaining activity at 100 µM / inhibition at 100 µM: pH 4.4, compound 100 μM, pH 4.4, 37° C.; for remaining activity at 100 µM: read-out: % FF; for inhibition at 100 µM: read-out: % Inhibition; for remaining activity at 50 µM: biphenyl ether 50 μM, read-out: % FF at 50 μM
Procedure: Stagnant Acid-Mediated TTR Aggregation Assay.
After 1 h, the samples were diluted with 0.5 ml of 200 mM sodium acetate buffer containing 100 mM KCl and 1 mM EDTA. Samples after mild vortexing were incubated at 37° C. for the desired amount of time without stirring to evaluate the efficacy of the inhibitors. The extent of aggregation was probed by turbidity measurements at 340 nm using Tecan GENios microplate reader. […] The extent of TTR fibril formation in the absence of inhibitor was defined to be 100%. […] All experiments were done in triplicate. […] The IC50 was determined by plotting mean of % inhibition vs log and fitted to sigmoid equation:
The experiments were conducted at 25° C. After 1 h, the samples were diluted with 0.5 mL of 200 mM sodium acetate buffer pH 4.4 containing 100 mM KCl and 1 mM EDTA, vortexed, and incubated at 37° C. for 72 h. […] The stoichiometry of the binding of the inhibitors was determined by HPLC as described by Green et al., N. S. Palaninathan, S, L, Sacchettini, J. e. […] Dissociation constant of binding of these compounds to TTR was determined by fluorescence titration, and data were fitted into the Adair equation for two bind mg.

| Structure (SMILES) | remaining activity at 100 µM [%] | inhibition at 100 µM [%] | remaining activity at 50 µM [%] |
| --- | --- | --- | --- |
| Cc1cc(C(=O)Nc2cc(Cl)ccc2O)no1 [Compound C226-2564] | 96.8 | 3.18 |  |
| O=[N+]([O-])c1ccc(Cl)cc1Sc1nc2ccccc2s1 [Compound 2369-0691] | 8.2 | 91.8 |  |
| CSC1=NSC2=NC(=O)/C(=C\c3ccc(Cl)cc3)C(=N)N12 [Compound C146-0181] | 67.1 | 32.9 |  |
| O=C(O)c1ccc(Oc2ccc([N+](=O)[O-])cc2[N+](=O)[O-])c(O)c1 [Compound 22] |  |  | 75 |
| Cn1ncc(/N=C/c2ccccc2O)c1C(=O)N1CCOCC1 [Compound 2019-0006] | 50 | 50 |  |
| Cc1nnc2c(Oc3ccc(Cl)cc3)nc3ccccc3n12 [Compound 5001-0261] | 114 | 0 |  |
| O=C1CSC(c2ccc(Cl)cc2Cl)N1c1ccc(Cl)cc1 (stereo not drawn) [Compound 8004-9890] | 20.3 | 79.7 |  |
| COc1cc(CCl)ccc1Oc1ccc([N+](=O)[O-])cc1[N+](=O)[O-] [Compound 18] |  |  | 79 |
| CCCCN1CCc2nc3c(ccc4ccccc43)c(O)c2C1 [Compound 3453-1352] | 75.7 | 24.3 |  |
| Cc1nc2c(C(=O)NCCC(C)C)cnn2c(O)c1Cc1ccccc1F [Compound C218-0295] | -86.7 | 91.7 |  |
| CCc1ccccc1NC(=S)N(CCN(C)C)Cc1cccs1 [Compound C087-0905] | 108 | 0 |  |
| CCOc1cccc2c1OC(c1cccc(Cl)c1)N1N=C(c3cccs3)CC21 (stereo not drawn) [Compound K805-0132] |  | 0 |  |
| O=C1/C(=C/c2ccc(Cl)cc2Cl)SC(=S)N1c1ccc(O)cc1 [Compound 2189-0835] | 291 | 0 |  |
| CCN1C(=O)/C(=C/c2ccc(N(CC)CC)cc2O)SC1=S [Compound 1996-0170] | 177 | 0 |  |

Now from value to compound, other results behind:

| remaining activity at 100 µM [%] | inhibition at 100 µM [%] | Structure (SMILES) | remaining activity at 50 µM [%] |
| --- | --- | --- | --- |
| 10.4 | 9.71 | CCc1ccc(Oc2cc(F)nc(N)n2)cc1 [Compound 1544-0079] |  |
| 87.8 | 12.2 | CCOC(=O)c1c(N)sc(C(=O)Nc2cc(C)cc(C)c2)c1C [Compound R052-1596] |  |
| 368 | 0 | Cc1ccc2nc(NC(=O)c3ccccc3O)sc2c1 [Compound 1300-0073] |  |
| 146 | 0 | CCOC(=O)c1sc(=S)n(-c2cccc3ccccc23)c1N [Compound R052-0949] |  |
| 105 | 0 | Cc1nc2c(ccc3ccccc32)c(O)c1CN(C)Cc1ccccc1 [Compound 3453-1353] |  |
| 84.5 | 15.6 | COC(=O)c1sc(=S)n(-c2ccc(Cl)c(Cl)c2)c1N [Compound K286-4369] |  |
| 281 | 0 | COc1ccc(/C=C2\SC(=S)N(c3ccc(O)cc3)C2=O)cc1 [Compound 2189-0710] |  |
| 52.4 | 47.6 | Nc1nc(Cl)cc(Oc2ccccc2F)n1 [Compound 1545-0131] |  |
| 125 | 0 | Cc1ccc(/C=c2/sc3nc4ccccc4n3c2=O)cc1 [Compound 3062-0586] |  |
| 22.3 | 77.7 | O=C(O)C1CSC(c2ccc(Cl)cc2Cl)N1 (stereo not drawn) [Compound K085-0018] |  |
| 230 | 0 | COc1cc(/C=C2\SC(=S)N(c3ccc(O)cc3)C2=O)ccc1O [Compound 2189-0711] |  |
| 120 | 0 | O=C(O)C1CSC(c2ccc(O)cc2)N1 (stereo not drawn) [Compound K085-0008] |  |
| 129 | 0 | COc1ccc(C2NC(C(=O)O)CS2)cc1OC (stereo not drawn) [Compound K085-0007] |  |
